Test results: US10752634B2, “Crystalline forms of a brutons tyrosine kinase inhibitor” (Pharmacyclics LLC, priority 2012, dated 2020)
Converted amounts (≈) assume the structure as drawn. Like-named read-outs stand apart in the source and are kept apart here. Values belong to the compound of their own block, whether it stands above or below them.

Assays:
OCI-Ly10 = assay: Growth inhibition of OCI-Ly10 (ABC-DLBCL) cells; format: cell-based; details: Homo sapiens
From the text: See U.S. Pat. No. 7,711,492 and Staudt et al., Nature, Vol. 463, Jan. 7, 2010, pp. 88-92, the contents of which are incorporated by reference in their entirety.

[1] = Thermodynamic aqueous solubility; format: physicochemical
Method: The suspension was equilibrated at 25° C. for 24 hours then the pH was measured. The suspension was then filtered through a glass fibre C filter. The filtrate was then diluted by an appropriate factor e.g. 101. Quantitation was by HPLC with reference to a standard solution of approximately 0.25 mg/ml in DMSO. Different volumes of the standard, diluted and undiluted sample solutions were injected. The solubility was calculated using the peak areas determined by integration of the peak found at the same retention time as the principal peak in the standard injection.
Analysis was performed on an Agilent HP1100 series system equipped with a diode array detector and using ChemStation software vB.02.01-SR1.

[2] = for changes in the XRPD after GVS analysis: after GVS isotherm; for mass change: between 0-90% RH
Method: Sorption isotherms were obtained using a SMS DVS Intrinsic moisture sorption analyser, controlled by DVS Intrinsic Control software v1.0.0.30. The sample temperature was maintained at 25° C. by the instrument controls. […] The weight change, (mass relaxation) of the sample as a function of % RH was constantly monitored by the microbalance (accuracy ±0.005 mg). Typically 5-20 mg of sample was placed in a tared mesh stainless steel basket under ambient conditions. The sample was loaded and unloaded at 40% RH and 25° C. (typical room conditions). A moisture sorption isotherm was performed as outlined below (2 scans giving 1 complete cycle). The standard isotherm was performed at 25° C. at 10% RH intervals over a 0-90% RH range. Data analysis was undertaken in Microsoft Excel using DVS Analysis Suite v6.0.0.7. The sample was recovered after completion of the isotherm and re-analysed by XRPD.

[3] = Solid form stability on storage, by XRPD; format: physicochemical; details: for XRPD pattern post storage: stated as property of the form
Method: X-Ray powder diffraction patterns were collected on a Bruker AXS C2 GADDS or Bruker AXS D8 diffractometer.
X-Ray Powder Diffraction patterns were collected on a Bruker AXS C2 GADDS diffractometer using Cu Ka radiation (40 kV, 40 mA), automated XYZ stage, laser video microscope for auto-sample positioning and a HiStar 2-dimensional area detector. X-ray optics consists of a single Göbel multilayer mirror coupled with a pinhole collimator of 0.3 mm A weekly performance check is carried out using a certified standard NIST 1976 Corundum (flat plate). The beam divergence, i.e. the effective size of the X-ray beam on the sample, was approximately 4 mm. A θ-θ continuous scan mode was employed with a sample—detector distance of 20 cm which gives an effective 2θ range of 3.2°-29.7°. Typically the sample would be exposed to the X-ray beam for 120 seconds. The software used for data collection was GADDS for WNT 4.1.16 and the data were analysed and presented using Diffrac Plus EVA v11.0.0.2 or v13.0.0.2.
X-Ray Powder Diffraction patterns were collected on a Bruker D8 diffractometer using Cu Ka radiation (40 kV, 40 mA), θ-2θ goniometer, and divergence of V4 and receiving slits, a Ge monochromator and a Lynxeye detector. The instrument is performance checked using a certified Corundum standard (NIST 1976). The software used for data collection was Diffrac Plus XRD Commander v2.5.0 and the data were analysed and presented using Diffrac Plus EVA v11.0.0.2 or v13.0.0.2. Samples were run under ambient conditions as flat plate specimens using powder as received. The sample was gently packed into a cavity cut into polished, zero-background (510) silicon wafer. The sample was rotated in its own plane during analysis. The details of the data collection are: • Angular range: 2 to 42° 2θ • Step size: 0.05° 2θ • Collection time: 0.5 s/step

EC50 (OCI-Ly10; OCI-Ly10, 1 h, read-out: EC50 1 hour pulse, growth of OCI-Ly10): 50 nM | EC50 (OCI-Ly10; OCI-Ly10, read-out: EC50 continuous exposure, growth of OCI-Ly10): 10 nM
SMILES: C=CC(=O)N1CCC[C@@H](n2nc(-c3ccc(Oc4ccccc4)cc3)c3c(N)ncnc32)C1 [Compound 1, 1-((R)-3-(4-amino-3-(4-phenoxyphenyl)-1H-pyrazolo[3,4-d]pyrimidin-1-yl)piperidin-1-yl)prop-2-en-1-one]

observed aqueous solubility ([1]; about pH 8, stated as property of the form): about 0.013 mg/mL | Solubility in aqueous solution, Conc. Found ([1]; pH 8, 25° C., 24 hours): 13 µg/mL (≈ 29.5 µM) | changes in the XRPD after GVS analysis [2]: No significant changes | mass change ([2]; 25° C.): < 0.3 % w/w | XRPD pattern post storage ([3]; 25° C. and 97% RH for at least a week): substantially the same | XRPD pattern post storage ([3]; 40° C. and 75% RH for at least a week): substantially the same | crystallinity after storage ([3]; one week storage at 25° C./97% RH): unaffected | crystallinity after storage ([3]; one week storage at 40° C./75% RH): unaffected
SMILES: C=CC(=O)N1CCC[C@@H](n2nc(-c3ccc(Oc4ccccc4)cc3)c3c(N)ncnc32)C1 [Form A, 1-((R)-3-(4-amino-3-(4-phenoxyphenyl)-1H-pyrazolo[3,4-d]pyrimidin-1-yl)piperidin-1-yl)prop-2-en-1-one]

hysteresis in GVS ([2]; 0-90% RH, 25° C.): No hysteresis | changes in the XRPD after GVS analysis [2]: No significant changes | mass change ([2]; 25° C.): 2.3 % w/w
SMILES: C=CC(=O)N1CCC[C@@H](n2nc(-c3ccc(Oc4ccccc4)cc3)c3c(N)ncnc32)C1 [Form B, 1-((R)-3-(4-amino-3-(4-phenoxyphenyl)-1H-pyrazolo[3,4-d]pyrimidin-1-yl)piperidin-1-yl)prop-2-en-1-one]

form conversion on standing and drying ([3]; standing at ambient temperature overnight and drying at 40° C. in vacuo for one day): converted to Compound 1, Form A
SMILES: C=CC(=O)N1CCC[C@@H](n2nc(-c3ccc(Oc4ccccc4)cc3)c3c(N)ncnc32)C1 [Form E, 1-((R)-3-(4-amino-3-(4-phenoxyphenyl)-1H-pyrazolo[3,4-d]pyrimidin-1-yl)piperidin-1-yl)prop-2-en-1-one]
